Reference: patent publication US20210038730A1, “PEPTIDE NANOFIBERS” (UNIVERSITY OF PORTSMOUTH HIGHER EDUCATION CORPORATION, priority 2018, published 2021)

Experiments:
[1] = Critical aggregation concentration, pyrene assay; type: physicochemical; settings: PBS pH 7.4, 37° C., 24 hours
Protocol: (§1) Critical aggregation concentration (CAC) of TPGnRH was determined using pyrene ^1-4 and thioflavin T ^5, 6. The peptide solutions (3.5-700 μM) were prepared in phosphate-buffered saline (PBS, 0.01 M, pH 7.4) either by a dilution of a stock solution at 700 μM or solutions prepared at the required concentration. In the pyrene assay, pyrene was dissolved in methanol at 250 μM, dispersed into a black 96-well plate, and methanol was evaporated overnight. TPGnRH solutions were added to pyrene and incubated at 37° C. for 24 hours under stirring. Fluorescence spectra was recorded λex at 334 nm. For the thioflavin T assay, peptide solutions were added to freshly prepared thioflavin Tat 50 μM. All peptide samples were incubated during 5 minutes at room temperature and fluorescence was measured at λex at 450 nm and λem at 482 nm.

[2] = Critical aggregation concentration, thioflavin T assay; type: physicochemical; settings: PBS pH 7.4
Protocol: as §1
PAX:TPGnRH formulation at a molar ratio 1:7.36 was diluted in PBS (0.01 M, pH 7.4) from 22,000 to 7 μM of TPGnRH. Diluted formulations (20 μL) were added to 80 μL of Thioflavin T at 50 μM, incubated for 5 minutes at room temperature, and fluorescence was measured at λex 450 and λem 482 in a black 96-well plate using the Synergy H1 Microplate Reader (BioteK, Vermont, USA).

hCMEC/D3 cells = assay: Cytotoxicity (MTT) in blood-brain barrier endothelial cells; type: cell-based, human; settings: 3.5-140 μM, 4 and 24 hours
Protocol: (§2) Human brain microvessel endothelial cells (hCMEC/D3) and cerebral astrocytes (SC-1800) were maintained in a humidified atmosphere of 5% CO2, and the medium was refreshed every 2-3 days. hCMEC/D3 cells were cultured in endothelial basal medium-2 (EBM-2) supplemented with the EGM-2 Bullet Kit and 2% (v/v) human serum. SC-1800 were cultured in astrocytes basal medium (ABM) supplemented with AGM Bullet Kit and 3% (v/v) human serum. […] Subsequently, complete growth medium (4 mL) was added and cells were centrifuged using a C-28A centrifuge (Boeco, Hamburg, Germany) at 1,000 rpm for 5 minutes. Supernatant was discarded, and pellet was re-suspended in 1 mL of medium. The cell number was counted using Trypan Blue Exclusion Assay in the Countess II Automated Cell Counter (Thermo Scientific, Paisley, UK). hCMEC/D3 and SC-1800 cells were seeded at 20,000 cells/cm^2 in complete medium and allowed to attach overnight. […] Cell metabolic activity was measured after 4 and 24 hours using (3-(4,5)-dimethylthiazol-2-yl)-2,5-diphenyltetrazolium bromide ([…]) assay. […] Subsequently, DMSO (100 μL) was added to dissolve the formazan crystals and absorbance was measured at 570 and 690 nm. Metabolic activity was calculated by subtracting the absorbance values at 690 nm to 570 nm to remove background, and dividing the values by the control to express as a percentage (%) of the control using the equation below. […]

SC-1800 cells = assay: Cytotoxicity (MTT) in cerebral astrocytes; type: cell-based, human; settings: 3.5-140 μM, 4 and 24 hours
Protocol: as §2

[3] = Enzymatic stability in rat plasma; settings: 50% (v/v) rat plasma
Protocol: Fresh blood, obtained from adult male Wistar rats, was collected in sterile the 170 I.U. lithium heparin-coated tubes (Vacutainer, BD Bioscience, UK). Blood was centrifuged immediately at 2,000 g for 15 minutes (4° C.) and supernatant was collected and diluted to 50% (v/v) with PBS. Livers and brains were obtained from adult male Wistar rats, and the tissues were blotted to dryness, weighed, sliced into pieces, and homogenised with ice-cold PBS (in 2 mL of buffer g^−1 of tissue) using the glass homogeniser. Then, tissue homogenates were centrifuged at 4,300 g for 1 hour (4° C.) and the supernatants collected. Glioblastoma cell homogenates were prepared using U-87 MG cells. Cells were cultured in Eagle's Minimum Essential Medium (EMEM) supplemented with 10% (v/v) heat-inactivated fetal bovine serum (FBS), 1% (v/v) of non-essential amino acids (NEAA) and 1 mM of sodium pyruvate in T75 flasks with a surface area of 75 cm^2 and maintained in a humidified atmosphere of 5% CO2 at 37° C. Breast cancer cell homogenates were prepared using MDA-MB-231 cells. Cells were cultured in Dulbecco's Modified Eagle Medium (DMEM) supplemented with high levels of glucose (4.5 g/L), 10% (v/v) heat-inactivated fetal bovine serum (FBS), 1% (v/v) of non-essential amino acids (NEAA) and penicillin and streptomycin (500 units/mL) in T75 flasks with a surface area of 75 cm^2 and maintained in a humidified atmosphere of 5% CO2 at 37° C. Media was changed for both cell lines every 3 to 4 days. After reaching confluence, cells were washed twice with Hank's Balanced Salt Solution (HBSS) and incubated with ˜2 mL of TrypLE Enzyme at 37° C. for ˜3 minutes. Then, complete media were added, and cells were centrifuged at 1,000 rpm for 5 minutes in C-28A centrifuge (Boeco, Germany). U-87 MG or MDA-MB-231 cells (˜10×10^6 cells mL^−1) were re-suspended in ice-cold PBS, and homogenised with a 2×5 second pulses with the probe sonicator (UP200S Ultrasonic processor, SciMed, 200 watts, amplitude of 60%). Cell debris were removed by centrifugation at 2,000 rpm for 5 minutes (Jouan B4i, Thermo Scientific, Paisley, UK). Supernatant was collected and stored at −80° C. Total protein concentration in the homogenates was determined using the Bradford assay with bovine serum albumin as a standard. Diluted plasma, tissue or cell homogenates were pre-warmed during ˜30 minutes at 37° C. Peptide stock solutions (Glu-GnRH, goserelin acetate and TPGnRH, 5 mM in PBS, 500 μL) were prepared and added to the homogenate solutions (120 μL). […] Samples were vortexed for 15 minutes, centrifuged for 15 minutes at 12,000 rpm, and the supernatants were collected and analysed by RP-HPLC.

[4] = In vivo pharmacokinetic study, intravenous; settings: mice
Protocol: At 5 and 60 minutes, mice were killed and the blood and brain were harvested. Blood samples (0.5-0.7 mL per mouse) were collected into evacuated, sterile, spray coated with tripotassium ethylenediamine tetraacetic acid (3.6 mg), medical grade PET tubes. […] Brain was weighted and homogenised with ice-cold PBS (1×, 7.4) using a 3 mL glass homogeniser. Plasma (100 μL) and brain homogenate (˜800 μL) were extracted with equal volumes of ice-cold acetonitrile three times and samples were dried using a centrifugal concentrator (SPD1010 SpeedVac System, ThermoSavant, Renfrewshire, United Kingdom) under vacuum over 2 hours and 4 hours respectively. Samples were orbitally agitated using a SciQuip Microplate Shaker attached to a tube adapter for 1.5-2 mL tubes (10 mm) for 10 minutes prior being centrifuged at 8,000 rpm for 5 minutes. Supernatants were pipetted in 0.2 mL amber vials and was quantified by reverse phase-HPLC. Analysis was conducted on Onyx Monolithic C18 column (4.6 mm×10+100 mm, 5 μm pore size) with a gradient method (Table 13) using an Agilent 1200 Series HPLC system (Agilent Technologies, Cheadle, UK). […] Injection volume was 40 μL, and the detection was performed at 220 nm and 280 nm.

[5] = Enzymatic stability in rat liver homogenates; settings: 50% (v/v) rat liver homogenates
Protocol: Fresh blood, obtained from adult male Wistar rats, was collected in sterile the 170 I.U. lithium heparin-coated tubes (Vacutainer, BD Bioscience, UK). Blood was centrifuged immediately at 2,000 g for 15 minutes (4° C.) and supernatant was collected and diluted to 50% (v/v) with PBS. Livers and brains were obtained from adult male Wistar rats, and the tissues were blotted to dryness, weighed, sliced into pieces, and homogenised with ice-cold PBS (in 2 mL of buffer g^−1 of tissue) using the glass homogeniser. Then, tissue homogenates were centrifuged at 4,300 g for 1 hour (4° C.) and the supernatants collected. Glioblastoma cell homogenates were prepared using U-87 MG cells. Cells were cultured in Eagle's Minimum Essential Medium (EMEM) supplemented with 10% (v/v) heat-inactivated fetal bovine serum (FBS), 1% (v/v) of non-essential amino acids (NEAA) and 1 mM of sodium pyruvate in T75 flasks with a surface area of 75 cm^2 and maintained in a humidified atmosphere of 5% CO2 at 37° C. Breast cancer cell homogenates were prepared using MDA-MB-231 cells. Cells were cultured in Dulbecco's Modified Eagle Medium (DMEM) supplemented with high levels of glucose (4.5 g/L), 10% (v/v) heat-inactivated fetal bovine serum (FBS), 1% (v/v) of non-essential amino acids (NEAA) and penicillin and streptomycin (500 units/mL) in T75 flasks with a surface area of 75 cm^2 and maintained in a humidified atmosphere of 5% CO2 at 37° C. Media was changed for both cell lines every 3 to 4 days. After reaching confluence, cells were washed twice with Hank's Balanced Salt Solution (HBSS) and incubated with ˜2 mL of TrypLE Enzyme at 37° C. for ˜3 minutes. Then, complete media were added, and cells were centrifuged at 1,000 rpm for 5 minutes in C-28A centrifuge (Boeco, Germany). U-87 MG or MDA-MB-231 cells (˜10×10^6 cells mL^−1) were re-suspended in ice-cold PBS, and homogenised with a 2×5 second pulses with the probe sonicator (UP200S Ultrasonic processor, SciMed, 200 watts, amplitude of 60%). Cell debris were removed by centrifugation at 2,000 rpm for 5 minutes (Jouan B4i, Thermo Scientific, Paisley, UK). Supernatant was collected and stored at −80° C. Total protein concentration in the homogenates was determined using the Bradford assay with bovine serum albumin as a standard. Diluted plasma, tissue or cell homogenates were pre-warmed during ˜30 minutes at 37° C. Peptide stock solutions (Glu-GnRH, goserelin acetate and TPGnRH, 5 mM in PBS, 500 μL) were prepared and added to the homogenate solutions (120 μL). PAX-loaded nanofibers prepared at a ratio of 1:7.36 [PAX:TPGnRH consisting of 3 μmol (2.56 mg mL^−1) of PAX, 22.02 μmol (31.46 mg mL^−1) of TPGnRH], as previously described, and further diluted in PBS to achieve a concentration of 5 mM of TPGnRH and 500 nM of PAX (120 μL) were added to the homogenates. At various time intervals, an aliquot was collected (80 μL) and added to ice-cold ACN (80 μL) to quench the enzymatic activity. Samples were stored at −80° C. for at least 3 hours to maximise protein precipitation. Samples were vortexed for 15 minutes, centrifuged for 15 minutes at 12,000 rpm, and the supernatants were collected and analysed by RP-HPLC.

CCCCCCCCCCCCCCCC(=O)Oc1ccc(C[C@H](NC(=O)[C@H](CO)NC(=O)[C@H](Cc2c[nH]c3ccccc23)NC(=O)[C@H](Cc2c[nH]cn2)NC(=O)[C@@H](N)CCC(=O)O)C(=O)NCC(=O)N[C@@H](CC(C)C)C(=O)N[C@@H](CCCNC(=N)N)C(=O)N2CCC[C@H]2C(=O)NCC(N)=O)cc1 [TPGnRH, Tyrosine (O-Palmitoyl)-Glu-GnRH]
CAC (self-assembly into aggregates) [1]: 7 µM | minimal CAC (self-assembly into long-axial nanofibers) [2]: 135 µM | cytotoxicity (metabolic activity, MTT) (hCMEC/D3 cells): no cytotoxicity | cytotoxicity (metabolic activity, MTT) (SC-1800 cells): no cytotoxicity | k ([3]; analyte in brackets of label): 0.0937 min⁻¹ | remaining at 8 h, 4.03 mM ([3]; male, Wistar, rat): > 80% | tolerability ([4]; intravenous 35 mg kg^−1, no immediate signs of toxicity, no gross alterations in liver, spleen, lungs, kidneys): well tolerated | dose in blood ([4]; intravenous, after 1 hour): ~6 % of dose | Plateau ([5]; analyte in brackets of label): 359.3 µg/mL | kα ([5]; analyte in brackets of label): 0.1678 min⁻¹ | kβ ([5]; analyte in brackets of label): 0.005339 min⁻¹ | remaining at 8 h, 4.03 mM ([5]; male, Wistar, rat): ~50%
